Assay results taken from patent US10517946B2, “Polyelectrolyte multilayers assembled from immune signal compounds” (University of Maryland, College Park, priority 2015, dated 2019).

Experiments:
[1] = molecular target: T1, TLR3 (Mus musculus, UniProt Q99MB1); assay: TLR3 signaling in HEK-Blue mTLR3 cells (AuNP iPEMs); assay type: cell-based; conditions: 16 hours, absorbance 625 nm
T1 construct: host or cells: HEK-Blue mTLR3 (HEK293-derived reporter cells)
T1 sequence (Q99MB1 26-905): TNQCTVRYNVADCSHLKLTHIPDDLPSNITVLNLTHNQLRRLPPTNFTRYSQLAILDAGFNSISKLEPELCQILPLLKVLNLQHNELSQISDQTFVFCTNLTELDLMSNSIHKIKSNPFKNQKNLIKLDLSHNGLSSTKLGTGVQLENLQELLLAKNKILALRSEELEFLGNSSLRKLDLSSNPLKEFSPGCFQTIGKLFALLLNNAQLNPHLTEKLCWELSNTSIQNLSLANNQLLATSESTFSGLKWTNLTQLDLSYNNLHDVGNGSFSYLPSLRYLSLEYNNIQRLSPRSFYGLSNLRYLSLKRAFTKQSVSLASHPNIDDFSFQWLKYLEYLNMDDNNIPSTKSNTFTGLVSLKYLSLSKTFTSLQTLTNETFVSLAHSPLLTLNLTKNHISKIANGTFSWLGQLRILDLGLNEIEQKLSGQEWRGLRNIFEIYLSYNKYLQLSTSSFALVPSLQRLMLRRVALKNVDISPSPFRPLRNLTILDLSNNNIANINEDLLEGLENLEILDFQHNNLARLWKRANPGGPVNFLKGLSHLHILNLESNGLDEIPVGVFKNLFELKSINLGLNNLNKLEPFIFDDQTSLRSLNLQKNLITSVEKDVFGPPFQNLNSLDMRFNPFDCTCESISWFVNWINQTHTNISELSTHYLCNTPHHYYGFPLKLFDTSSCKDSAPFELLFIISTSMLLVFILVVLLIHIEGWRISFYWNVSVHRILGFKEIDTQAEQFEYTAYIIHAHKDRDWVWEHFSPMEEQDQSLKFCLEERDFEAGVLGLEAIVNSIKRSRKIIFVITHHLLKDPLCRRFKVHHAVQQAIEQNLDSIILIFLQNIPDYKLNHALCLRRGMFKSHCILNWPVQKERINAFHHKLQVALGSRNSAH
Experimental: TLR3 signaling: TLR3 activity was assessed using HEK-Blue mTLR3 cells (Invivogen). Cells were seeded at a concentration of 5.0×10^4 cells per well, followed by treatment with Pam3CSK4 (0.2 μg/mL), LPS (1.0 μg/mL), polyIC (10 μg/mL), C-ODN (5 μg/mL), SIIN peptide (5 μg/mL), AuNPs (1.9×10^−2 mg/well), AuNP-(C-ODN/SIIN*)2 (80 μg/mL), or AuNP-(polyIC/SIIN*)2 (80 μg/mL). After 16 hours the absorbance was read at 625 nm using a UV/Vis platereader (Molecular Devices).

[2] = tested on: splenic CD11c+ DCs from B6 mice; assay: Presentation of SIINFEKL via MHC-I by DCs; assay type: cell-based, mouse; conditions: anti-SIIN/MHC-I antibody
Experimental: DC activation and antigen presentation: […] After incubation with iPEM-coated AuNPs, DCs were washed twice with PBS+1% BSA, then blocked in anti-CD16/CD32 (Fcγ III/II receptor) (25× dilution, BD Biosciences) for 15 min at room temperature. The cells were then stained with antibodies for CD80 (FITC), CD86 (AmCyan-A), and CD40 (PE). To quantify presentation of SIINFEKL (SEQ ID NO:15) via the MHC-I pathway, cells were stained with a PE-Cy7 labeled antibody (BioLegend) against anti-mouse H-2Kb bound to OVA257-264 (SIINFEKL (SEQ ID NO:15)). All antibodies were fluorescent conjugates and were used by staining for 20 min at a 1:300 dilution in PBS+1% BSA. Cells were then washed twice in PBS+1% BSA and resuspended in a DAPI solution for analysis by flow cytometry. The data analysis was performed with Flowjo (Treestar).

[3] = tested on: primary DCs; assay type: cell-based, mouse
Experimental: Cell internalization studies: Association and uptake of coated AuNPs by DCs was characterized by flow cytometry (FACS CantoII, BD Bioscience) and confocal microscopy (Leica SP5X). For flow cytometry, CD11c^+ splenic DCs were seeded in 96 well plates at a concentration of 1.0×10^5 cells per well. Uncoated AuNPs or AuNPs-(polyIC-Cy5/SIIN*-FITC)2 were then added to each well in a volume of 25 μL. Two-fold serial dilutions were performed using a starting iPEM/AuNPs concentration of 1.9 mg/mL. Cells were then cultured for 16 h. After incubation, cells were washed twice by centrifugation and re-suspended in FACS buffer (PBS+1% BSA). The washed cells were finally resuspended in a DAPI solution (0.1% in PBS+1% BSA) to allow assessment of viability by flow cytometry (i.e., DAPI^− cells). Cells positive for FITC and Cy5 signals compared with negative controls were considered to have associated with iPEMs.

[4] = tested on: OT-I CD8+ T cells; assay: DC / OT-I CD8+ T cell co-culture, CFSE proliferation; assay type: cell-based, mouse; conditions: T cells co-cultured with treated DCs
Experimental: (§1) T cell co-culture, activation, and proliferation: […] Untreated cells were used as a negative control. After 48 h, T cells isolated from OT-I mice were stained with CellTrace™ CFSE cell proliferation reagent (5 μg/mL in cell culture medium) by incubation at room temperature for 5 min. T cells were then co-cultured with each DC sample by addition of 3.0×10^5 T cells per well. After an additional 48 h of incubation, cells were centrifuged (800 rcf for 5 min), the supernatants were collected for ELISA, and the cells were washed in PBS+1% FBS. Cells were then blocked as above and stained with anti-CD8a (APC) for 15 min at room temperature. Lastly, cells were washed twice and re-suspended in DAPI. T cell proliferation was determined by the mean fluorescence intensity (MFI) of CFSE signal among DAPI^−, CD8^+ cells compared with positive and negative controls.

[5] = tested on: DC/OT-I T cell co-cultures; assay: ELISA of cytokines in DC/T cell co-culture supernatants; assay type: cell-based, mouse; conditions: co-culture supernatant, SIIN-treated samples
Experimental: as §1, with “controls. ELISA: Cytokine levels in the supernatants collected from DCs/T cell co-cultures were analyzed by ELISA using mouse TNF, IFN-γ, and IL-1β ELISA reagents (BD Bioscience) according to the manufacturer's instructions. 10 μL of each supernatant was used in each test, and cytokine concentrations were quantified by comparison to standard curves prepared from known standards.” for “controls.”

Substance	TLR3 signaling [1]	DCs presenting SIIN via MHC-I [2]	viability of DCs relative to cells treated with LPS [3] [%]	OT-I T cell proliferation (CFSE dilution) [4]	cytokine secretion [5]
Pam3CSK4	lack of signal				
lipopolysaccharide [LPS]	lack of signal	baseline levels			
Polyinosinic-polycytidylic acid [polyIC]		baseline levels	92.8		
SIINFEKL (Ovalbumin peptide model antigen) [SIIN peptide]				proliferation of OT-I T cells	lack of cytokine secretion
